A word on the IC50: it is the midpoint of a concentration-inhibition curve.

Read-outs that look alike come from different tables or passages of the source.

One experiment deals with T1, XIAP BIR2-3 (Homo sapiens, UniProt P98170, C202A/C213G).
T1 construct: His-BIR2-3 (125-356, C202A/C213G, XIAP)
The experiment is described as follows: XIAP-BIR2-3 dimeric SMAC Peptide Homogeneous Time Resolved Fluorescence (HTRF) Assay. The experiment is classed as binding. The procedure: B. […] Assays were performed in black, flat-bottom, 384-well plates. […] Compounds were dissolved at 3 mM in dimethylsulfoxide (DMSO) and evaluated at eleven serially diluted concentrations. IC50 and Ki values were derived by non-linear regression analysis.
Background: TR-FRET usually uses a lanthanide donor and a delayed reading to cut background.

A further experiment deals with T2, XIAP BIR3 (Homo sapiens, UniProt P98170).
T2 construct: His-BIR3 (241-356, XIAP)
T2 sequence (P98170 241-356): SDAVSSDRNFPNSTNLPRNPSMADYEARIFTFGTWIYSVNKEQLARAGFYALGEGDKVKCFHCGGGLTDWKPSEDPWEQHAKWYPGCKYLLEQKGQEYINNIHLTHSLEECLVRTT
In words: XIAP-BIR3/SMAC Homogeneous Time Resolved Fluorescence (HTRF) Assay. The experiment is classed as binding. The procedure: A. XIAP-BIR3/SMAC Homogeneous Time Resolved Fluorescence (HTRF) Assay Assays were performed in black, flat-bottom, 384-well plates. […] The reaction was incubated at room temperature for 60 minutes, following which 10 μl of mouse anti-6×His-terbium labeled Fab (Medarex, Cis-bio) was added to the reaction (40 μl) for an additional 30 minute incubation. […] Compounds were dissolved at 3 mM in dimethylsulfoxide (DMSO) and evaluated at eleven serially diluted concentrations. IC50 and Ki values were derived by non-linear regression analysis.

[1] abbreviates: 0.5 nM N-His-BIR2-3 (125-356, C202A/C213G, XIAP), 20 nM fluorescein labeled dimeric SMAC peptide, HTRF signal, read-out: XIAP BIR2-3 IC50.
Setting [2] is: 1 nM N-His-BIR3 (241-356, XIAP), 5 nM fluorescein labeled SMAC peptide, HTRF signal, read-out: XIAP BIR3 IC50.

T1 sequence (P98170 125-356 C202A/C213G): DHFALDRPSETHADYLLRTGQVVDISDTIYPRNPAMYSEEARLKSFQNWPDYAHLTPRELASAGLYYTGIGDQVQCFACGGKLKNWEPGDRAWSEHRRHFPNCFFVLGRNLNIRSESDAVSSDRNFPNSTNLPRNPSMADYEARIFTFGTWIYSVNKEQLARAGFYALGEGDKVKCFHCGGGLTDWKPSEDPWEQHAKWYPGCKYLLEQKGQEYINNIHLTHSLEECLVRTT

`CCC(CC)[C@H](NC(=O)[C@H](CC)NC)C(=O)N1C[C@@H](NC(=O)c2ccc3c(c2)CN(C(=O)[C@@H](NC(=O)[C@H](C)NC)C(C)(C)C)[C@H](C(=O)N[C@@H]2CCCc4ccccc42)C3)C[C@H]1C(=O)N[C@@H]1CCCc2ccccc21` [Example 16, (S)-2-((S)-3,3-Dimethyl-2-((S)-2-(methylamino)propanamido)butanoyl)-N^7-((3S,5S)-1-((S)-3-ethyl-2-((S)-2-(methylamino)butanamido)pentanoyl)-5-(((R)-1,2,3,4-tetrahydronaphthalen-1-yl)carbamoyl)pyrrolidin-3-yl)-N^3-((R)-1,2,3,4-tetrahydronaphthalen-1-yl)-1,2,3,4-tetrahydroisoquinoline-3,7-dicarboxamide]: the IC50 on XIAP BIR2-3 (setting [1]) turned out to be 10 nM; at XIAP BIR3 (setting [2]), 19 nM.
For `CCC(CC)[C@H](NC(=O)[C@H](C)NC)C(=O)N1C[C@@H](NC(=O)c2ccc3c(c2)CN(C(=O)[C@@H](NC(=O)[C@H](C)NC)C(C)(C)C)[C@H](C(=O)N[C@@H]2CCCc4ccccc42)C3)C[C@H]1C(=O)N[C@@H]1CCCc2ccccc21` [Example 17, (S)-2-((S)-3,3-Dimethyl-2-((S)-2-(methylamino)propanamido)butanoyl)-N^7-((3S,5S)-1-((S)-3-ethyl-2-((S)-2-(methylamino)propanamido)pentanoyl)-5-(((R)-1,2,3,4-tetrahydronaphthalen-1-yl)carbamoyl)pyrrolidin-3-yl)-N^3-((R)-1,2,3,4-tetrahydronaphthalen-1-yl)-1,2,3,4-tetrahydroisoquinoline-3,7-dicarboxamide] the same measures were 2 nM and 2 nM.
For `CCN[C@@H](C)C(=O)N[C@H](C(=O)N1Cc2cc(C(=O)N[C@H]3C[C@@H](C(=O)N[C@@H]4CCCc5ccccc54)N(C(=O)[C@@H](NC(=O)[C@H](C)NC)C(C)(C)C)C3)ccc2C[C@H]1C(=O)N[C@@H]1CCCc2ccccc21)C(CC)CC` [Example 18, (S)-N^7-((3S,5S)-1-((S)-3,3-Dimethyl-2-((S)-2-(methylamino)propanamido)butanoyl)-5-(((R)-1,2,3,4-tetrahydronaphthalen-1-yl)carbamoyl)pyrrolidin-3-yl)-2-((S)-3-ethyl-2-((S)-2-(ethylamino)propanamido)pentanoyl)-N^3-((R)-1,2,3,4-tetrahydronaphthalen-1-yl)-1,2,3,4-tetrahydroisoquinoline-3,7-dicarboxamide], in that order: 4 nM and 9 nM.
On to `CCC(CC)[C@H](NC(=O)[C@H](CC)NC)C(=O)N1Cc2cc(C(=O)N[C@H]3C[C@@H](C(=O)N[C@@H]4CCCc5ccccc54)N(C(=O)[C@@H](NC(=O)[C@H](C)NC)C(C)(C)C)C3)ccc2C[C@H]1C(=O)N[C@@H]1CCCc2ccccc21` [Example 19, (S)-N^7-((3S,5S)-1-((S)-3,3-Dimethyl-2-((S)-2-(methylamino)propanamido)butanoyl)-5-(((R)-1,2,3,4-tetrahydronaphthalen-1-yl)carbamoyl)pyrrolidin-3-yl)-2-((S)-3-ethyl-2-((S)-2-(methylamino)butanamido)pentanoyl)-N^3-((R)-1,2,3,4-tetrahydronaphthalen-1-yl)-1,2,3,4-tetrahydroisoquinoline-3,7-dicarboxamide], for which the IC50 on XIAP BIR2-3 (setting [1]) was 2 nM; at XIAP BIR3 (setting [2]) it was 7 nM.
`CN[C@@H](C)C(=O)N[C@H](C(=O)N1Cc2cc(N[C@H]3C[C@@H](C(=O)N[C@@H]4CCCc5ccccc54)N(C(=O)[C@@H](NC(=O)[C@H](C)NC)C(C)(C)C)C3)ccc2C[C@H]1C(=O)N[C@@H]1CCCc2ccccc21)C(C)(C)C` [Example 20, (S)-2-((S)-3,3-Dimethyl-2-((S)-2-(methylamino)propanamido)butanoyl)-7-(((3S,5S)-1-((S)-3,3-dimethyl-2-((S)-2-(methylamino)propanamido)butanoyl)-5-(((R)-1,2,3,4-tetrahydronaphthalen-1-yl)carbamoyl)pyrrolidin-3-yl)amino)-N—((R)-1,2,3,4-tetrahydronaphthalen-1-yl)-1,2,3,4-tetrahydroisoquinoline-3-carboxamide]: the IC50 is 3 nM on XIAP BIR2-3 and 13 nM against XIAP BIR3.
As for `CN[C@@H](C)C(=O)N[C@H](C(=O)N1Cc2cc(O[C@H]3C[C@@H](C(=O)N[C@@H]4CCCc5ccccc54)N(C(=O)[C@@H](NC(=O)[C@H](C)NC)C(C)(C)C)C3)ccc2C[C@H]1C(=O)N[C@@H]1CCCc2ccccc21)C(C)(C)C` [Example 21, (S)-2-((S)-3,3-Dimethyl-2-((S)-2-(methylamino)propanamido)butanoyl)-7-(((3S,5S)-1-((S)-3,3-dimethyl-2-((S)-2-(methylamino)propanamido)butanoyl)-5-(((R)-1,2,3,4-tetrahydronaphthalen-1-yl)carbamoyl)pyrrolidin-3-yl)oxy)-N—((R)-1,2,3,4-tetrahydronaphthalen-1-yl)-1,2,3,4-tetrahydroisoquinoline-3-carboxamide], the IC50 turned out to be 3 nM against XIAP BIR2-3 and 30 nM at XIAP BIR3.
For `CN[C@@H](C)C(=O)N[C@H](C(=O)N1Cc2cc([C@H]3C[C@@H](C(=O)N[C@@H]4CCCc5ccccc54)N(C(=O)[C@@H](NC(=O)[C@H](C)NC)C(C)(C)C)C3)ccc2C[C@H]1C(=O)N[C@@H]1CCCc2ccccc21)C(C)(C)C` [Example 22, (S)-2-((S)-3,3-Dimethyl-2-((S)-2-(methylamino)propanamido)butanoyl)-7-((3R,5S)-1-((S)-3,3-dimethyl-2-((S)-2-(methylamino)propanamido)butanoyl)-5-(((R)-1,2,3,4-tetrahydronaphthalen-1-yl)carbamoyl)pyrrolidin-3-yl)-N—((R)-1,2,3,4-tetrahydronaphthalen-1-yl)-1,2,3,4-tetrahydroisoquinoline-3-carboxamide], the figures for the IC50 at XIAP BIR2-3 and against XIAP BIR3 were 1 nM and 2 nM, respectively.
Take `CN[C@@H](C)C(=O)N[C@H](C(=O)N1Cc2cc([C@H]3C[C@@H](C(=O)N[C@@H]4CCCc5ccccc54)N(C(=O)[C@@H](NC(=O)[C@H](C)NC)C(C)(C)C)C3)ccc2C[C@H]1C(=O)N[C@H](C)c1ccccc1F)C(C)(C)C` [Example 23, (S)-2-((S)-3,3-Dimethyl-2-((S)-2-(methylamino)propanamido)butanoyl)-7-((3R,5S)-1-((S)-3,3-dimethyl-2-((S)-2-(methylamino)propanamido)butanoyl)-5-(((R)-1,2,3,4-tetrahydronaphthalen-1-yl)carbamoyl)pyrrolidin-3-yl)-N—((R)-1-(2-fluorophenyl)ethyl)-1,2,3,4-tetrahydroisoquinoline-3-carboxamide]: the results for the IC50 at XIAP BIR2-3 (setting [1]) and on XIAP BIR3 (setting [2]) were 3 nM and 4 nM, respectively.
For the compound `CN[C@@H](C)C(=O)N[C@H](C(=O)N1Cc2cc([C@H]3C[C@@H](C(=O)N[C@@H]4CCCc5ccccc54)N(C(=O)[C@@H](NC(=O)[C@H](C)NC)C(C)(C)C)C3)ccc2C[C@H]1C(=O)N[C@@H]1CCCc2ccccc21)C1CCOCC1` [Example 24, (S)-7-((3R,5S)-1-((S)-3,3-Dimethyl-2-((S)-2-(methylamino)propanamido)butanoyl)-5-(((R)-1,2,3,4-tetrahydronaphthalen-1-yl)carbamoyl)pyrrolidin-3-yl)-2-((S)-2-((S)-2-(methylamino)propanamido)-2-(tetrahydro-2H-pyran-4-yl)acetyl)-N—((R)-1,2,3,4-tetrahydronaphthalen-1-yl)-1,2,3,4-tetrahydroisoquinoline-3-carboxamide], the IC50 on XIAP BIR2-3 (setting [1]) is 1 nM; at XIAP BIR3 (setting [2]) it was 3 nM.

The record behind these values is patent US8889712B2, “IAP antagonists” (Bristol-Myers Squibb Company, priority 2012, dated 2014).
